This series is described as follows: Human HepG2 cell viability assay in 384 well format. Type of series: toxicity, cell-based. To be noted: HepG2 cells, read-out: Inhibition. Set-up: dose 125 nL, time 70.5 hour; concentration not given beside the values.
Regarding `CC1c2ncc(COCC3CC3)n2CCN1C(=O)c1ccnnc1` (stereo not drawn), the cytotoxicity at 70.5 h is -5.45%.

On to `Cc1nnn2c1COC(CNC(=O)c1cccn1C)C2` (stereo not drawn), for which the cytotoxicity at 70.5 h is -14.1%.

For the molecule `CC1c2ncc(COCC3CCOCC3)n2CCN1C(=O)c1ccco1` (stereo not drawn), the cytotoxicity at 70.5 h was -10.5%.

As for `COCC1CN(C(=O)Cc2ccccn2)Cc2cn(CC3CC3)nc21` (stereo not drawn), the cytotoxicity at 70.5 h is -14.6%.

As to `CCn1cc2c(n1)C(COC)CN(C(=O)CCOc1ccccc1)C2` (stereo not drawn), the cytotoxicity at 70.5 h is -12.3%.

`CN(C)S(=O)(=O)N1C[C@H]2C[C@H](C(=O)NCc3ccccc3)[C@@H](C1)O2`: the cytotoxicity at 70.5 h was -12.2%.

Consider `N#Cc1cccc(N2CC3(CCN(C(=O)c4ccnnc4)C3)CC2=O)c1` (stereo not drawn), for which the cytotoxicity at 70.5 h is -10.5%.

As to `CN(C)CCO[C@H]1CN(C(=O)c2cscn2)[C@@H]2COC[C@H]12`, the cytotoxicity at 70.5 h is -14.3%.

As for `O=C(c1ccnnc1)N1C[C@H](OCC2CC2)[C@H]2COC[C@H]21`, the cytotoxicity at 70.5 h is -13.5%.

As to `CN(C)CCO[C@H]1CN(C(=O)c2ccc[nH]2)[C@@H]2COC[C@H]12`, the cytotoxicity at 70.5 h was -11.1%.

In the case of `CN(C)C(=O)N1CCC2(CC(=O)N(c3cccc(C#N)c3)C2)C1` (stereo not drawn), the cytotoxicity at 70.5 h was -5.09%.

In the case of `CCO[C@H]1CN(C(=O)c2ccnnc2)[C@@H]2COC[C@H]12`, the cytotoxicity at 70.5 h was -10.7%.

In the case of `O=C(c1ncccn1)N1C[C@@H]2CN(Cc3cccnc3)CCO[C@@H]2C1`, the cytotoxicity at 70.5 h is -5.35%.

With `CC(C)NC(=O)[C@H]1C[C@@H]2CN(C(=O)NCc3ccccc3)C[C@H]1O2`, the cytotoxicity at 70.5 h is -7.91%.

For the molecule `CCOCC1CC2(CCN(C(=O)c3cscn3)CC2)CO1` (stereo not drawn), the cytotoxicity at 70.5 h was -9.28%.

As for `CCn1cc2c(n1)C(COC)CN(C(=O)c1ccccn1)C2` (stereo not drawn), the cytotoxicity at 70.5 h was -9.71%.

On to `O=C(c1ccnnc1)N1CCc2onc(Cn3cccn3)c2C1`, for which the cytotoxicity at 70.5 h is -3.08%.

For `O=C(c1ccco1)N1CCc2onc(Cn3cccn3)c2C1`, the cytotoxicity at 70.5 h was -7.44%.

In the case of `CN(C)CCOCC1CN(CCN(C)C)Cc2ccnn2C1` (stereo not drawn), the cytotoxicity at 70.5 h is -10.7%.

Take `COc1ccc(C(=O)N2C[C@@H](O)[C@H](NCc3ncccc3C)C2)cc1`: the cytotoxicity at 70.5 h was -8.03%.

In the case of `CNCCCNC1CCN(c2ccc(-n3ccnc3)cc2)CC1`, the cytotoxicity at 70.5 h was -7.26%.

With `CC(C)Cc1cc(C(=O)NCC2CCCN(Cc3ccco3)C2)on1` (stereo not drawn), the cytotoxicity at 70.5 h was -10.7%.

Regarding `Cc1nn(C)c2nc(-c3ccccn3)nc(NCCC3CCCN3C)c12` (stereo not drawn), the cytotoxicity at 70.5 h was 1.37%.

Turning to `Cc1ncsc1CN1CC2(CCCC2)CC1=O`, the cytotoxicity at 70.5 h was determined as 0.928%.

As to `COc1ccc2nc(O)c(CN(C)Cc3ncc[nH]3)cc2c1`, the cytotoxicity at 70.5 h is 1.48%.

In the case of `COCCc1noc(C2CCCN(c3nc(N)nc4c3CCCC4)C2)n1` (stereo not drawn), the cytotoxicity at 70.5 h turned out to be 3.87%.

Regarding `CNc1ncc(CN(C)C(=O)CCc2[nH]nc3c2CCCC3)cn1`, the cytotoxicity at 70.5 h was -11.5%.

For `Cc1cccnc1CC(C)Nc1ncc(C)c(N(C)C)n1` (stereo not drawn), the cytotoxicity at 70.5 h turned out to be 2.64%.

For the molecule `CCCc1nccn1-c1ccc(C(C)O)cc1` (stereo not drawn), the cytotoxicity at 70.5 h was -5.9%.

For `O=C(NCC1CCCCO1)c1cc(Cn2cnc3ccccc32)[nH]n1` (stereo not drawn), the cytotoxicity at 70.5 h was -6.38%.

On to `O=C(NCCSc1ccccc1)[C@H]1CNC[C@@H](C(=O)N2CCOCC2)C1`, for which the cytotoxicity at 70.5 h is -7.93%.

For `Nc1ncccc1CN1C[C@H]2OC(=O)N(Cc3ccccn3)[C@H]2C1`, the cytotoxicity at 70.5 h was -3.5%.

Turning to `Clc1ccccc1C1(c2ccnc(C3CC3)n2)CCNCC1`, the cytotoxicity at 70.5 h was 48.5%.

For `COc1ccc(C(=O)C2CCCN(Cc3cnn(C)c3C)C2)c(OC)c1` (stereo not drawn), the cytotoxicity at 70.5 h was -20.2%.

On to `O=C(O)C1(n2ccnc2)CCN(Cc2ccc3occc3c2)CC1`, for which the cytotoxicity at 70.5 h is -5.96%.

With `Cc1cc(CNC(=O)c2cc(COc3cncc(Cl)c3)on2)n[nH]1`, the cytotoxicity at 70.5 h was 16%.

`COc1cc(C#N)ccc1OC12CCCN(CC1)C2` (stereo not drawn): the cytotoxicity at 70.5 h is -8.26%.

As for `CC(C)=CCN1C[C@H]2CC[C@@H]1CN(C(=O)Cn1c(C)cc(C)nc1=O)C2`, the cytotoxicity at 70.5 h is -4.66%.

Turning to `COc1ccnc(N2CCC(=O)N(CC3CC3)C(C(C)C)C2)n1` (stereo not drawn), the cytotoxicity at 70.5 h is 32.2%.

`COCCNc1ncnc2c1CCN(C(=O)CC1CCC(=O)N1)CC2` (stereo not drawn): the cytotoxicity at 70.5 h is -12.7%.

Regarding `NC(=O)N1CCCC(C(=O)N2CCN(c3nsc4ccccc34)CC2)C1` (stereo not drawn), the cytotoxicity at 70.5 h is -3.95%.

Take `Cc1cccc(C)c1Oc1ncccc1CNC(=O)C1COC(=O)N1` (stereo not drawn): the cytotoxicity at 70.5 h is -21.8%.

`CN(C)Cc1nnc(C2CCN(c3ncccc3Cl)CC2)n1C1CC1`: the cytotoxicity at 70.5 h was 8.65%.

`O=C(Nc1ccc(-c2ccco2)cc1)C1CCCN(Cc2ccon2)C1` (stereo not drawn): the cytotoxicity at 70.5 h stood at 1.57%.

Turning to `CC(CCN1CCCn2nc(CNS(C)(=O)=O)cc2C1)c1ccccc1` (stereo not drawn), the cytotoxicity at 70.5 h is 17.7%.

Take `COCCn1c(CN2CCCO2)cnc1S(=O)(=O)CC1CCCCC1`: the cytotoxicity at 70.5 h is -2.9%.

Take `CN(C)C(C(=O)N1CC(c2ccccn2)C1)c1cccc(F)c1` (stereo not drawn): the cytotoxicity at 70.5 h is -2.09%.

Consider `CC(C)c1nc(CNc2nccc(CCC(F)(F)F)n2)cs1`, for which the cytotoxicity at 70.5 h was -8.19%.

For the molecule `Cc1ccc(C)c2c(=O)cc(CN3CC[C@@H](N)[C@H](O)C3)[nH]c12`, the cytotoxicity at 70.5 h is -3.81%.

In the case of `CC(C)n1ccnc1C1CCN(Cc2ccc(C(F)(F)F)c(F)c2)CC1`, the cytotoxicity at 70.5 h came to 23.4%.

As to `CN1C(=O)CC(C(=O)O)C12CCN(c1ccc3c(n1)CCCC3)CC2` (stereo not drawn), the cytotoxicity at 70.5 h was -5.19%.

Take `O=C(O)[C@H]1C[C@@H](C(=O)NCc2ccncc2)CN(Cc2ccccc2)C1`: the cytotoxicity at 70.5 h was -1.34%.

`O=C(c1ccc(C2CCCN2C(=O)c2ccc[nH]2)s1)N1CCSCC1` (stereo not drawn): the cytotoxicity at 70.5 h is -19.6%.

Turning to `c1ccc(C(CNc2ncccn2)N2CCOCC2)nc1` (stereo not drawn), the cytotoxicity at 70.5 h was -1.54%.

In the case of `Cc1n[nH]c(C)c1-c1cc(-c2cc[nH]c2)nc(N)c1C#N`, the cytotoxicity at 70.5 h is -12.3%.

As to `Cc1cncc(NC(=O)c2ccc(CN3CCCC(C(N)=O)C3)cc2)c1` (stereo not drawn), the cytotoxicity at 70.5 h was -0.673%.

As for `Cc1ccc(C(=O)N2CCC3(CC2)c2ccccc2[C@@H](N)[C@@H]3O)c(=O)[nH]1`, the cytotoxicity at 70.5 h was -7.97%.

On to `Cc1cc(C)nc(N2CCC(C(=O)O)(n3ccc(C(C)(C)C)n3)CC2)n1`, for which the cytotoxicity at 70.5 h is -10.1%.

Turning to `COCCN1CCN(Cc2ccc(Cl)cc2)[C@H]2CS(=O)(=O)C[C@H]21`, the cytotoxicity at 70.5 h amounted to 0.00609%.

For the molecule `O=C(NC1CC(=O)N(C2Cc3ccccc3C2)C1)c1ccsc1` (stereo not drawn), the cytotoxicity at 70.5 h was -3.74%.

In the case of `NC(=O)NCC(=O)N1CCCC(OCc2cccnc2)C1` (stereo not drawn), the cytotoxicity at 70.5 h came to 47.2%.

As for `CN(C)CC1(O)CCCN(Cc2cnc(-c3ccco3)nc2)CC1` (stereo not drawn), the cytotoxicity at 70.5 h is -8.26%.

As to `FC(F)(F)CCc1ccnc(N2CCN(Cc3ccccn3)CC2)n1`, the cytotoxicity at 70.5 h is 6.16%.

In the case of `CC(C1CCN(Cc2ccccc2OC(F)F)CC1)N1CCOCC1` (stereo not drawn), the cytotoxicity at 70.5 h was -8.64%.

For the molecule `CC(C)N1CC2(CCC1=O)CCN(C(=O)c1cc(F)ccc1Cl)CC2`, the cytotoxicity at 70.5 h was -5.5%.

As to `CCCN1CCN(C(=O)c2cccc3cccnc23)[C@H]2CS(=O)(=O)C[C@H]21`, the cytotoxicity at 70.5 h was determined as 25.6%.

As for `COC1CCN(S(=O)(=O)N2CCC3(CCCNC3=O)C2)CC1` (stereo not drawn), the cytotoxicity at 70.5 h was -0.998%.

Regarding `CC(C)CN1CCC(c2nnc(CN3CCCC3)n2C2CC2)CC1`, the cytotoxicity at 70.5 h was -6.17%.

For `Cc1ccccc1-n1cc(-c2ccnc(N3CCCC(O)C3)n2)cn1` (stereo not drawn), the cytotoxicity at 70.5 h is -3.81%.

`CCc1ccc(CN2C[C@@H](C(=O)O)[C@H](c3ccccc3OC)C2)o1`: the cytotoxicity at 70.5 h was -1.56%.

For `Cc1ccccc1SCC(=O)Nn1cnnc1`, the cytotoxicity at 70.5 h is -9.7%.

For `CC(Cn1cncn1)NCc1ccc2nonc2c1` (stereo not drawn), the cytotoxicity at 70.5 h was -5.99%.

On to `CC[C@@H](c1ccccc1)n1c(CCN)n[nH]c1=O`, for which the cytotoxicity at 70.5 h was -5.25%.

Regarding `O=C(CCc1nc(Cl)n[nH]1)N1C[C@H](CO)C[C@H](CN2CCCC2)C1`, the cytotoxicity at 70.5 h is -7.42%.

For `O=C(c1cc(Cl)c[nH]c1=O)N1C[C@@H]2CC[C@H](C1)N(Cc1ccccc1)C2`, the cytotoxicity at 70.5 h is 12.7%.

Regarding `CCCc1cc(NCc2cc(C)on2)n2nccc2n1`, the cytotoxicity at 70.5 h was found to be 14.2%.

Take `O=C(NCc1cccc(Cl)c1)C1=NOC2(CCNC2)C1` (stereo not drawn): the cytotoxicity at 70.5 h was -6.34%.

`CCCS(=O)(=O)N1C[C@@H](OCc2ccncc2)[C@H]2OCCC[C@H]21`: the cytotoxicity at 70.5 h was -7.43%.

With `COCCN1CCc2c(cnc(-c3ccccc3)c2C(=O)O)C1`, the cytotoxicity at 70.5 h is -9.19%.

Consider `Cn1nccc1C(=O)N1CCC2(CC1)COC(COc1ccccn1)C2` (stereo not drawn), for which the cytotoxicity at 70.5 h was -11.2%.

As to `CN(C)CCNC(=O)[C@H]1C[C@@H]2CN(C(=O)NCc3ccccc3)C[C@H]1O2`, the cytotoxicity at 70.5 h is -14.9%.

On to `CC(C)N1CCc2nnc(COc3cncnc3)n2CC1`, for which the cytotoxicity at 70.5 h was -9.44%.

Take `CNC(=O)N1C[C@H]2C[C@H](C(=O)NCc3cccnc3)[C@@H](C1)O2`: the cytotoxicity at 70.5 h is -4.91%.

On to `O=C(c1ccco1)N1C[C@H]2CCCN(CC3CC3)[C@H]2C1`, for which the cytotoxicity at 70.5 h was -16.9%.

Turning to `Cc1cccc(CN2CCC[C@@H]3CN(C(=O)c4ccco4)C[C@@H]32)n1`, the cytotoxicity at 70.5 h is -7.63%.

As for `Cn1cccc1C(=O)N1CCC2(CCCN2Cc2ccccc2)CC1`, the cytotoxicity at 70.5 h was -9.97%.

With `O=C(c1ccco1)N1C[C@H]2CCCN(Cc3ccoc3)[C@H]2C1`, the cytotoxicity at 70.5 h was -9.66%.

With `Cc1nc(CN2CCO[C@@H]3CN(Cc4nccs4)C[C@@H]3C2)cs1`, the cytotoxicity at 70.5 h is -1.91%.

Regarding `Cc1ccc(CN2C[C@@H]3CCCO[C@@H]3[C@H](N(C)Cc3ccco3)C2)o1`, the cytotoxicity at 70.5 h was -9.18%.

On to `O=C(O)c1c(-c2cccnc2)ncc2c1CCN(Cc1cccnc1)C2`, for which the cytotoxicity at 70.5 h is -5.73%.

`Cc1cnc(C(=O)N2C[C@H]3CN(Cc4cccnc4)C[C@H]3C2)cn1`: the cytotoxicity at 70.5 h is 6.07%.

Consider `c1cncc(CN2CCc3c(nnn3CC3CC3)C2COCC2CC2)c1` (stereo not drawn), for which the cytotoxicity at 70.5 h was -14.9%.

Regarding `O=C(NC1CC1)[C@H]1C[C@H]2OCC[C@H]2N(Cc2cccnc2)C1`, the cytotoxicity at 70.5 h was -7.68%.

The record behind these values is ChEMBL document CHEMBL3507680, “University of Dundee, Gates Library screen for HepG2 cell viability”.
